This passage reports T/C results from PubChem BioAssay AID330 (DTP/NCI, 2004).

Where “and” joins values, the source holds several entries; their conditions need not be identical. Identical values can stand only once. Inconclusive results and toxic doses are left out.

The subject of this test is P388 leukemia ip, CD2F1 mice, survival T/C. Briefly: NCI In Vivo Anticancer Drug Screen. Data for tumor model P388 Leukemia (intraperitoneal) in CD2F1 (CDF1) mice. As to conditions: endpoint: median survival time, higher = longer survival. In a few lines:
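Mice carrying the transplanted tumor received test compound or vehicle. Survival was recorded in each group, and the value is the treated-group measurement divided by that of the vehicle-treated control group.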

The mark [1] stands for this setting: dose: 50.0 mg/kg/injection, schedule: Q01DX005 (ip), vehicle: saline with Tween-80.
Setting [2] is: dose: 50.0 mg/kg/injection, schedule: Q01DX009 (ip), vehicle: saline with Tween-80.
[3] abbreviates: dose: 100.0 mg/kg/injection, schedule: Q01DX009 (ip), vehicle: saline with Tween-80.
[4] abbreviates: dose: 50.0 mg/kg/injection, schedule: Q01DX009 (ip), vehicle: Klucel (hydroxypropylcellulose) (HPC).
Setting [5] is: dose: 100.0 mg/kg/injection, schedule: Q01DX009 (ip), vehicle: Klucel (hydroxypropylcellulose) (HPC).
[6] abbreviates: dose: 200.0 mg/kg/injection, schedule: Q01DX009 (ip), vehicle: Klucel (hydroxypropylcellulose) (HPC).
Setting [7] is: dose: 60.0 mg/kg/injection, schedule: Q01DX005 (ip), vehicle: Klucel (hydroxypropylcellulose) (HPC).
The mark [8] stands for this setting: dose: 120.0 mg/kg/injection, schedule: Q01DX005 (ip), vehicle: Klucel (hydroxypropylcellulose) (HPC).
Where [9] appears, read: dose: 240.0 mg/kg/injection, schedule: Q01DX005 (ip), vehicle: Klucel (hydroxypropylcellulose) (HPC).
The mark [10] stands for this setting: dose: 100.0 mg/kg/injection, schedule: Q04DX003 (ip), vehicle: saline with Tween-80.
Setting [11] is: dose: 200.0 mg/kg/injection, schedule: Q04DX003 (ip), vehicle: saline with Tween-80.
Where [12] appears, read: dose: 60.0 mg/kg/injection, schedule: Q01DX005 (ip), vehicle: saline with Tween-80.
Setting [13] is: dose: 120.0 mg/kg/injection, schedule: Q01DX005 (ip), vehicle: saline with Tween-80.
Where [14] appears, read: dose: 240.0 mg/kg/injection, schedule: Q01DX005 (ip), vehicle: saline with Tween-80.

For `CCOC(=O)Nc1c(CC(C)O)n[nH]c1C` (stereo not given), the T/C is, setting by setting: under setting [1], 110 % of control; (dose: 100.0 mg/kg/injection, schedule: Q01DX005 (ip), vehicle: saline with Tween-80) 100 % of control; (dose: 200.0 mg/kg/injection, schedule: Q01DX005 (ip), vehicle: saline with Tween-80) 96 % of control.

`CSc1ccc(N=C(N)N)cc1`: the T/C was 108 % of control under setting [2] and 110 % of control under setting [3].

As for `CCN(CC)Cc1cc(N=Nc2ccc([N+](=O)[O-])c(OC)c2)c2ccccc2c1O`, the T/C is, setting by setting: under setting [4], 99 % of control; under setting [5], 95 % of control; under setting [6], 97 % of control.

In the case of `Cc1c(C)[n+](=O)c2ccc(/C=[N+](\C)[O-])cc2n1[O-]`, the T/C by setting is: under setting [4], 98 % of control; under setting [5], 100 % of control; under setting [6], 101 % of control.

Regarding `COc1ccc(OC)c(/C=C/C2=C(C)C(=O)CC(c3cc(OC)ccc3OC)C2C)c1` (stereo not given), the T/C is 90 % of control (dose: 100.0 mg/kg/injection, schedule: Q04DX003 (ip), vehicle: Klucel (hydroxypropylcellulose) (HPC)) and 88 % of control (dose: 200.0 mg/kg/injection, schedule: Q04DX003 (ip), vehicle: Klucel (hydroxypropylcellulose) (HPC)).

For the compound `CCOC1(C)OC2OC(COC(c3ccccc3)(c3ccccc3)c3ccccc3)C(OC(=O)c3ccccc3)C(OC(=O)c3ccccc3)C2O1` (stereo not given), the T/C (dose: 12.5 mg/kg/injection, schedule: Q01DX009 (ip), vehicle: distilled water + Tween-80) is 98 % of control; the T/C (dose: 25.0 mg/kg/injection, schedule: Q01DX009 (ip), vehicle: distilled water + Tween-80) is 90 % of control; the T/C (dose: 50.0 mg/kg/injection, schedule: Q01DX009 (ip), vehicle: distilled water + Tween-80) is 99 % of control.

`Nc1noc(N)n1`: the T/C runs as follows: (dose: 50.0 mg/kg/injection, schedule: Q01DX005 (ip), vehicle: saline) 107 % of control; (dose: 100.0 mg/kg/injection, schedule: Q01DX005 (ip), vehicle: saline) 110 % of control; (dose: 200.0 mg/kg/injection, schedule: Q01DX005 (ip), vehicle: saline) 124 % of control.

Turning to `CC1CC[N-]C(CCC2CC(C)CC[N-]2)C1.CC1CC[N-]C(CCC2CC(C)CC[N-]2)C1.[Ni+2].[O-][Cl+3]([O-])([O-])O` (stereo not given), the T/C (dose: 25.0 mg/kg/injection, schedule: Q01DX001 (ip), vehicle: saline) is 99 % of control; the T/C (dose: 50.0 mg/kg/injection, schedule: Q01DX001 (ip), vehicle: saline) is 93 % of control; the T/C (dose: 100.0 mg/kg/injection, schedule: Q01DX001 (ip), vehicle: saline) is 108 % of control and 96 % of control.

As for `O=Nc1sc(=S)n(N2CCCCC2)c1O`, the T/C is, setting by setting: (dose: 50.0 mg/kg/injection, schedule: Q01DX005 (ip), vehicle: Klucel (hydroxypropylcellulose) (HPC)) 99 % of control; (dose: 100.0 mg/kg/injection, schedule: Q01DX005 (ip), vehicle: Klucel (hydroxypropylcellulose) (HPC)) 96 % of control.

`CC(CNCCN)C[Si](C)(C)C` (stereo not given): the T/C runs as follows: (dose: 6.25 mg/kg/injection, schedule: Q01DX009 (ip), vehicle: saline) 95 % of control; (dose: 12.5 mg/kg/injection, schedule: Q01DX009 (ip), vehicle: saline) 87 % of control; (dose: 25.0 mg/kg/injection, schedule: Q01DX009 (ip), vehicle: saline) 95 % of control.

Regarding `FC(F)(F)c1nnc(-c2ccccc2)nn1`, the T/C is 100 % of control (dose: 100.0 mg/kg/injection, schedule: Q04DX002 (ip), vehicle: Klucel (hydroxypropylcellulose) (HPC)) and 104 % of control (dose: 200.0 mg/kg/injection, schedule: Q04DX002 (ip), vehicle: Klucel (hydroxypropylcellulose) (HPC)).

With `CC(C)C1=CC23CCC4C(C)(C(=O)O)CCCC4(C)C2CC1C(C(=O)NCCCN(C)C)C3C(=O)O` (stereo not given), the T/C is 95 % of control under setting [7], 95 % of control under setting [8] and 93 % of control under setting [9].

Consider `COc1cc(OC)c(OC)cc1/C=C\c1ccc2ccccc2[n+]1C`, for which the T/C (dose: 3.12 mg/kg/injection, schedule: Q01DX009 (ip), vehicle: saline with Tween-80) is 105 % of control; the T/C (dose: 6.25 mg/kg/injection, schedule: Q01DX009 (ip), vehicle: saline with Tween-80) was 110 % of control; the T/C (dose: 12.5 mg/kg/injection, schedule: Q01DX009 (ip), vehicle: saline with Tween-80) is 111 % of control and 122 % of control; the T/C (dose: 25.0 mg/kg/injection, schedule: Q01DX009 (ip), vehicle: saline with Tween-80) was 123 % of control.

In the case of `COC(=O)C(Cc1ccccc1)NCCNC(C)=O` (stereo not given), the T/C runs as follows: under setting [10], 95 % of control; under setting [11], 95 % of control.

For `CCCCCCCC(=O)Nc1nnc(SCCCCCCCCCCSc2nnc(NC(=O)CCCCCCC)s2)s1`, the T/C (dose: 50.0 mg/kg/injection, schedule: Q01DX005 (ip), vehicle: Klucel + Tween-80) was 90 % of control; the T/C (dose: 100.0 mg/kg/injection, schedule: Q01DX005 (ip), vehicle: Klucel + Tween-80) was 87 % of control; the T/C (dose: 200.0 mg/kg/injection, schedule: Q01DX005 (ip), vehicle: Klucel + Tween-80) is 90 % of control.

Take `NC(=O)C1C=CN(Cc2ccccc2)C=C1`: the T/C reads like this: (dose: 30.0 mg/kg/injection, schedule: Q01DX005 (ip), vehicle: saline with Tween-80) 105 % of control and 106 % of control; under setting [12], 108 % of control and 111 % of control and 123 % of control; under setting [13], 117 % of control and 118 % of control; under setting [14], 108 % of control and 123 % of control.

Turning to `Clc1ccc(-c2nnc(Nc3ccnc4cc(Cl)ccc34)s2)cc1`, the T/C runs as follows: (dose: 12.5 mg/kg/injection, schedule: Q01DX005 (ip), vehicle: saline with Tween-80) 96 % of control; (dose: 25.0 mg/kg/injection, schedule: Q01DX005 (ip), vehicle: saline with Tween-80) 96 % of control; under setting [1], 99 % of control and 102 % of control.

For the compound `Cc1ccc2cccc(OC(=O)c3cccnc3Oc3ccccc3)c2n1`, the T/C by setting is: under setting [2], 91 % of control; under setting [3], 90 % of control; (dose: 200.0 mg/kg/injection, schedule: Q01DX009 (ip), vehicle: saline with Tween-80) 90 % of control.

With `COc1cc2c(cc1C(CC(C)=O)c1cc(OC)c(OC)c(OC)c1)OCO2` (stereo not given), the T/C reads like this: under setting [12], 100 % of control; under setting [13], 100 % of control; under setting [14], 103 % of control.

Regarding `CCc1c(O)c(C(C)=O)c(S)[nH]c1=O`, the T/C is 101 % of control and 88 % of control under setting [7]; 102 % of control under setting [8]; 114 % of control and 87 % of control under setting [9].

On to `Cc1nc2c(I)cccc2c(=O)n1CC(=O)NNC(N)=S`, for which the T/C under setting [10] was 101 % of control; the T/C under setting [11] is 97 % of control; the T/C (dose: 400.0 mg/kg/injection, schedule: Q04DX003 (ip), vehicle: saline with Tween-80) is 100 % of control.
